Laboratory results: publication PMC7785020, “A unique hormonal recognition feature of the human glucagon-like peptide-2 receptor” (Cell Research, 2020)
Changes are numbered by the printed parent chain.

Legend:
[1] = target: T1, GLP-2R Y182^1.43A (Homo sapiens, UniProt O95838, Y182A); assay: radioligand competition binding, Y182^1.43A; design: WT (1–553); expressed in transfected cells; details: COS-7, Y182^1.43A; [^125I]GLP-2(1–33, M10Y) 10–15 pM, 4 h, 4 °C; mean ± SEM, n ≥ 3 in duplicate
T1 sequence (O95838 1-553 Y182A): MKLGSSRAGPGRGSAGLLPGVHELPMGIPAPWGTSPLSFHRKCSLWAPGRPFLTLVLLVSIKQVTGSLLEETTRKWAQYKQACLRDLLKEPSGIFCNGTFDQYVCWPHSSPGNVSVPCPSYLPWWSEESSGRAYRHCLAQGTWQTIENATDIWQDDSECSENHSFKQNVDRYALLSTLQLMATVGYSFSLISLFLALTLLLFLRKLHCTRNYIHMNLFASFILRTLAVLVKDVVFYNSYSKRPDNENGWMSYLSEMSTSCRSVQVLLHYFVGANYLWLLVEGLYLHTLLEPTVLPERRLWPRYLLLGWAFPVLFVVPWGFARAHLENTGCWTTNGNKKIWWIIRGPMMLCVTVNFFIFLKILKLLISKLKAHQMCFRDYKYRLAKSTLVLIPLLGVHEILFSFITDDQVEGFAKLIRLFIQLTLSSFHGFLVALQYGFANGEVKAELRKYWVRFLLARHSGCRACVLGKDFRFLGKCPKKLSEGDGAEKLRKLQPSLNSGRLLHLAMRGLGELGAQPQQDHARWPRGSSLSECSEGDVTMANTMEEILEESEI
Experimental: A stepwise oxidation reaction was performed by addition of 6 aliquots of 5 µL ChloramineT (30 µL/mL) with a 1-min interval during constant stirring. The reaction was terminated by the addition of 400 µL phase A (0.1% trifluoracetic acid) before being fractionated into 1 mL volume by reverse-phase high-performance liquid chromatography (RP-HPLC, Waters 600 SimiPrep system) on a C18 column. The iodinated protein was […] by increasing concentrations of phase B (Acetonitrile + 0.1% TFA) and tested for competitive binding ability.
One day before transfection, the COS-7 cells were seeded in 75 cm^2 culture flasks (3 million cells/flask) in DMEM, containing 3.9 g/L NaHCO3 and supplemented with 10% FBS, 1% L-glutamine, 180 units/mL penicillin and 45 µg/mL streptomycin. After an overnight culture at 37 °C, 10% CO2 and 95% air humidity, the cells were transiently transfected with different GLP-2R constructs or pcDNA3.1 vector as previously described.[52] Following 24-h incubation, the cells were transferred to Costa® microtiter plates (150,000 cells/well, PerkinElmer) to achieve a 5%–10% specific binding. […] The cells were then washed twice in binding buffer (4 °C), lysed and counted for radioactivity using a Wallac Gamma Counter (PerkinElmer).

[2] = target: T2, GLP-2R H268^3.37A (Homo sapiens, UniProt O95838, H268A); assay: cAMP accumulation, H268^3.37A; assay type: cell-based; design: WT (1–553); expressed in transfected cells; HEK 293T (cAMP); details: Table S3, H268A; HEK 293T, 30 min, RT; mean ± SEM, n ≥ 3 in duplicate; read-out: cAMP Emax (% WT)
T2 sequence (O95838 1-553 H268A): T1 sequence (O95838 1-553 Y182A) with A182Y, H268A
Experimental: HEK 293T cells were cultured in Dulbecco’s Modified Eagle’s Medium (DMEM) (Gibco, Waltham, USA) supplemented with 10% (v/v) fetal bovine serum (FBS) (Gibco) and 1% (v/v) sodium pyruvate (Gibco) at 37 °C, 5% CO2 in a humidified incubator. They were seeded onto 6-well cell culture plates and transiently transfected with different GLP-2R constructs using Lipofectamine 2000 transfection reagent (Invitrogen, Carlsbad, CA, USA). After 24 h, the transfected cells were seeded onto 384-well microtiter plates (3000 cells per well) in HBSS supplemented with 5 mM HEPES, 0.1% (w/v) bovine serum albumin (BSA) and 0.5 mM 3-isobutyl-1- methylxanthine, and stimulated with increasing concentrations of GLP-2 for 30 min at RT. Eu and Ulight were diluted by cAMP detection buffer and added to the plates separately to terminate the reaction. Plates were incubated at RT for 60 min before measuring the fluorescence intensity at 620 nm and […] by an EnVision multilabel plate reader (PerkinElmer, Boston, USA).

SMILES | % Binding of WT [1] | Emax [2]
CC[C@H](C)[C@H](NC(=O)[C@H](Cc1ccccc1)NC(=O)[C@H](CC(=O)O)NC(=O)[C@H](CCCNC(=N)N)NC(=O)[C@H](C)NC(=O)[C@H](C)NC(=O)[C@H](CC(C)C)NC(=O)[C@H](CC(N)=O)NC(=O)[C@H](CC(=O)O)NC(=O)[C@H](CC(C)C)NC(=O)[C@@H](NC(=O)[C@@H](NC(=O)[C@H](CC(N)=O)NC(=O)[C@H](CCSC)NC(=O)[C@H](CCC(=O)O)NC(=O)[C@H](CC(=O)O)NC(=O)[C@H](CO)NC(=O)[C@H](Cc1ccccc1)NC(=O)[C@H](CO)NC(=O)CNC(=O)[C@H](CC(=O)O)NC(=O)CNC(=O)[C@@H](N)Cc1c[nH]cn1)[C@@H](C)O)[C@@H](C)CC)C(=O)N[C@@H](CC(N)=O)C(=O)N[C@@H](Cc1c[nH]c2ccccc12)C(=O)N[C@@H](CC(C)C)C(=O)N[C@H](C(=O)N[C@@H](CCC(N)=O)C(=O)N[C@H](C(=O)N[C@@H](CCCCN)C(=O)N[C@H](C(=O)N[C@H](C(=O)N[C@@H](CC(=O)O)C(=O)O)[C@@H](C)O)[C@@H](C)CC)[C@@H](C)O)[C@@H](C)CC [Teduglutide] | 3.2 ± 1.3 % | 
CC[C@H](C)[C@H](NC(=O)[C@H](Cc1ccccc1)NC(=O)[C@H](CC(=O)O)NC(=O)[C@H](CCCNC(=N)N)NC(=O)[C@H](C)NC(=O)[C@H](C)NC(=O)[C@H](CC(C)C)NC(=O)[C@H](CC(N)=O)NC(=O)[C@H](CC(=O)O)NC(=O)[C@H](CC(C)C)NC(=O)[C@@H](NC(=O)[C@@H](NC(=O)[C@H](CC(N)=O)NC(=O)[C@H](CCSC)NC(=O)[C@H](CCC(=O)O)NC(=O)[C@H](CC(=O)O)NC(=O)[C@H](CO)NC(=O)[C@H](Cc1ccccc1)NC(=O)[C@H](CO)NC(=O)CNC(=O)[C@H](CC(=O)O)NC(=O)[C@H](C)NC(=O)[C@@H](N)Cc1c[nH]cn1)[C@@H](C)O)[C@@H](C)CC)C(=O)N[C@@H](CC(N)=O)C(=O)N[C@@H](Cc1c[nH]c2ccccc12)C(=O)N[C@@H](CC(C)C)C(=O)N[C@H](C(=O)N[C@@H](CCC(N)=O)C(=O)N[C@H](C(=O)N[C@@H](CCCCN)C(=O)N[C@H](C(=O)N[C@H](C(=O)N[C@@H](CC(=O)O)C(=O)O)[C@@H](C)O)[C@@H](C)CC)[C@@H](C)O)[C@@H](C)CC [Human GLP-2 (1–33)] | 3.4 ± 1.0 % | 118 ± 22.6%
